PMC12507957 (Drug Delivery and Translational Research, 2025)
Where “and” joins values, the source holds several entries; their conditions need not be identical. Equal values may be shown once. Read-outs that look alike come from different tables or passages of the source. Marks after values point to notes of the source that are not given here.

Legend:
[1] = In vitro skin permeation of 5%w/v MTG in single solvents (Franz diffusion cells), with infinite dose model fitting; assay type: in vitro ADME, porcine; settings: for Papp at 48 h, 5 %w/v: pig, read-out: Kp (permeability coefficient) (converted)
Experimental: The in vitro permeation study was performed in triplicate using Franz diffusion cell apparatus with a diffusion area of ~ 0.8 cm^2 and a receptor volume of ~ 3 mL. The porcine skin was thawed at room temperature and cut into an appropriate size before mounting on the Franz diffusion cells. The receptor compartment was filled with PBS containing 0.02%w/v of sodium azide and a selected antioxidant. The Franz diffusion cells were placed into a water bath to maintain the skin temperature at 32 ± 0.5 °C. […] After 48-h permeation studies, the mass balance studies were performed.
(§1) Samples were analysed using Shimadzu liquid chromatographic system (Kyoto, Japan) with SPD-20A UV–vis detector set at 254 nm. A reverse phase ZORBAX Eclipse Plus C18 column (Agilent Technologies, 150 × 4.6 mm ID × 3.5 μm) coupled with a C18 guard column (Phenomenex SecurityGuard™, 4 × 3.0 mm ID × 5 μm) was employed as the stationary phase. A gradient elution method with acetonitrile and 0.1%v/v of formic acid as the mobile phase (30:70 to 70:30 (v/v) over 1 min and held until 4 min; then returned to 30:70 (v/v) from 4 to 6 min and held up until 10 min) at a flow rate of 1.2 mL/min was used. The injection volume was set at 100 μL and the total run time was 10 min with a retention time of ~ 4 min.
To estimate the permeation parameters (P1 and P2), the in vitro permeation data were fitted to the infinite dose model (Eq. 1) using non-linear least squares. This infinite dose model was obtained by solving the diffusion equation using Laplace transform, which was subsequently numerically inverted using Weeks method and fitted to in Python 3.13.3 (Python Software Foundation, Wilmington, DE, US).1 Q¯s=J·A/s=P1ACd/ss/P2sinhs/P2
Here, Q¯s is the cumulative amount of drug permeated, J is the permeation flux, A is the permeation area, Cd is the initial concentration, h is the membrane thickness and s is the Laplace variable. The apparent partition and apparent diffusion coefficients, P1 and P2, are related to the h and the diffusion (D) and partition (K) coefficients, as defined in Eq. 2 and Eq. 3 [32]. The goodness of fit was measured based on the coefficient of determination (R^2) and root mean square error (RMSE).2 P1=Kh 3 P2=D/h^2
The permeability coefficient (Kp), steady-state flux (Jss) and lag time (tlag) can then be calculated using Eqs. 4, 5, and 6 [33] with the estimated values of P1 and P2 from the curve fitting.4 Kp=P1P2 5 Jss=KpCd 6 tlag=h^2/6D
Other permeation parameters were determined experimentally, where A was 0.7–0.8 cm^2, h was 0.0586 cm, Cd was 50 mg/mL and the volume of drug loaded was 40 µL.

[2] = Forced degradation studies of MTG; assay type: physicochemical; settings: over 24 h
Experimental: Samples were taken at 6, 12 and 24 h for dissolution and/or dilution before HPLC analysis (Sect. HPLC analysis).
as §1

[3] = 5%w/v MTG in DMSO, receptor PBS with 0.01%w/v ascorbic acid (DMSO-AA), 48 h
[4] = 5%w/v MTG in DMSO, receptor PBS without ascorbic acid, 48 h
[5] = 5%w/v MTG in Labrasol, receptor PBS with 0.01%w/v ascorbic acid (Labrasol-AA), 48 h
[6] = 5%w/v MTG in Lauroglycol, receptor PBS with 0.01%w/v ascorbic acid (Lauroglycol-AA), 48 h
[7] = 5%w/v MTG in Maisine, receptor PBS with 0.01%w/v ascorbic acid (Maisine-AA), 48 h
[8] = 5%w/v MTG in Maisine, receptor PBS without ascorbic acid, 48 h
[9] = 5%w/v MTG in PG, receptor PBS with 0.01%w/v ascorbic acid (PG-AA), 48 h
[10] = 5%w/v MTG in PG, receptor PBS without ascorbic acid, 48 h
[11] = 5%w/v MTG in Transcutol, receptor PBS with 0.01%w/v ascorbic acid (Transcutol-AA), 48 h
[12] = 5%w/v MTG in Transcutol, receptor PBS without ascorbic acid, 48 h
[13] = 5%w/v in dimethyl sulphoxide and Transcutol, optimised receptor medium (0.01%w/v ascorbic acid in PBS)

Structure (SMILES): CC[C@@H]1CN2CCc3c([nH]c4cccc(OC)c34)[C@@H]2C[C@@H]1/C(=C\OC)C(=O)OC [MTG, mitragynine]
- Jss (steady-state flux) [1, 3]: 0.77 ± 0.18 µg/cm^2/h and 0.77 ± 0.18^d µg/cm^2/h
- P1 (apparent partition coefficient) [1, 3]: 20.35 ± 8.07 × 10^–4 cm
- P2 (apparent diffusion coefficient) [1, 3]: 8.01 ± 1.91 × 10^–3 h^−1
- Permeation (cumulative amount of MTG permeated) [1, 3]: 15.40 ± 2.40 µg/cm^2
- tlag (lag time) [1, 3]: 21.53 ± 4.53 h
- Cumulative amount of MTG permeated [1, 4]: 14.40 ± 3.34 μg/cm^2
- Jss (steady-state flux) [1, 4]: 0.52 ± 0.15 µg/cm^2/h
- P1 (apparent partition coefficient) [1, 4]: 8.90 ± 5.52 × 10^–4 cm
- P2 (apparent diffusion coefficient) [1, 4]: 13.40 ± 4.73 × 10^–3 h^−1
- tlag (lag time) [1, 4]: 13.52 ± 4.70 h
- Jss (steady-state flux) [1, 5]: 0.14 ± 0.11 µg/cm^2/h
- P1 (apparent partition coefficient) [1, 5]: 6.83 ± 5.64^a × 10^–4 cm
- P2 (apparent diffusion coefficient) [1, 5]: 4.33 ± 0.52 × 10^–3 h^−1
- Permeation (cumulative amount of MTG permeated) [1, 5]: 1.53 ± 1.08 µg/cm^2
- tlag (lag time) [1, 5]: 38.85 ± 4.39^e,f h
- Permeation (cumulative amount of MTG permeated) ([1]; 5%w/v MTG in Labrasol, receptor PBS without ascorbic acid, 48 h): 1.36 ± 1.45 µg/cm^2
- Jss (steady-state flux) [1, 6]: 0.11 ± 0.07 µg/cm^2/h
- P1 (apparent partition coefficient) [1, 6]: 0.65 ± 0.09^a × 10^–4 cm
- P2 (apparent diffusion coefficient) [1, 6]: 33.50 ± 18.62^b × 10^–3 h^−1
- Permeation (cumulative amount of MTG permeated) [1, 6]: 3.65 ± 2.40 µg/cm^2
- tlag (lag time) [1, 6]: 6.39 ± 4.02^e h
- Permeation (cumulative amount of MTG permeated) ([1]; 5%w/v MTG in Lauroglycol, receptor PBS without ascorbic acid, 48 h): 0.77 ± 0.25 µg/cm^2
- Jss (steady-state flux) [1, 7]: 0.27 ± 0.07 µg/cm^2/h
- P1 (apparent partition coefficient) [1, 7]: 2.18 ± 0.48^a × 10^–4 cm
- P2 (apparent diffusion coefficient) [1, 7]: 25.90 ± 8.44 × 10^–3 h^−1
- Permeation (cumulative amount of MTG permeated) [1, 7]: 8.39 ± 2.61 µg/cm^2
- tlag (lag time) [1, 7]: 7.05 ± 2.82^e h
- Jss (steady-state flux) [1, 8]: 0.10 ± 0.09 µg/cm^2/h
- P1 (apparent partition coefficient) [1, 8]: 1.89 ± 1.95 × 10^–4 cm
- P2 (apparent diffusion coefficient) [1, 8]: 12.86 ± 5.15 × 10^–3 h^−1
- Permeation (cumulative amount of MTG permeated) [1, 8]: 2.26 ± 1.93 µg/cm^2
- tlag (lag time) [1, 8]: 14.19 ± 4.62 h
- Jss (steady-state flux) [1, 9]: 0.33 ± 0.12 µg/cm^2/h
- P1 (apparent partition coefficient) [1, 9]: 9.49 ± 3.95 × 10^–4 cm
- P2 (apparent diffusion coefficient) [1, 9]: 7.17 ± 0.89 × 10^–3 h^−1
- Permeation (cumulative amount of MTG permeated) [1, 9]: 6.06 ± 2.12 µg/cm^2 and 6.06 ± 2.13 µg/cm^2
- tlag (lag time) [1, 9]: 23.50 ± 2.93 h
- Cumulative amount of MTG permeated [1, 10]: 5.24 ± 2.28 μg/cm^2
- Jss (steady-state flux) [1, 10]: 0.48 ± 0.37 µg/cm^2/h
- P1 (apparent partition coefficient) [1, 10]: 25.55 ± 25.22 × 10^–4 cm
- P2 (apparent diffusion coefficient) [1, 10]: 7.33 ± 6.13 × 10^–3 h^−1
- tlag (lag time) [1, 10]: 33.85 ± 20.70 h
- Jss (steady-state flux) [1, 11]: 0.46 ± 0.22 µg/cm^2/h
- P1 (apparent partition coefficient) [1, 11]: 10.40 ± 4.15 × 10^–4 cm
- P2 (apparent diffusion coefficient) [1, 11]: 8.76 ± 0.55 × 10^–3 h^−1
- Permeation (cumulative amount of MTG permeated) [1, 11]: 10.27 ± 4.40 µg/cm^2
- tlag (lag time) [1, 11]: 19.07 ± 1.17 h
- Jss (steady-state flux) [1, 12]: 0.44 ± 0.18 µg/cm^2/h
- P1 (apparent partition coefficient) [1, 12]: 26.94 ± 23.48 × 10^–4 cm
- P2 (apparent diffusion coefficient) [1, 12]: 4.29 ± 1.70 × 10^–3 h^−1
- Permeation (cumulative amount of MTG permeated) [1, 12]: 3.89 ± 1.41 µg/cm^2
- tlag (lag time) [1, 12]: 44.70 ± 22.17 h
- Cumulative amount of MTG permeated ([1]; 5%w/v MTG in the rest of the solvents (other than DMSO), receptor PBS without ascorbic acid, 48 h): < 4 μg/cm^2
- Drug permeation ([1]; 5%w/v in Labrasol and Lauroglycol, optimised receptor medium): 1 – 4 μg/cm^2
- Mitragynine permeated ([1]; 5%w/v in Maisine and propylene glycol, optimised receptor medium): 6 – 8 µg/cm^2
- Mitragynine permeation [1, 13]: 10 – 15 µg/cm^2
- Skin fluxes [1, 13]: 0.5 – 0.8 µg/cm^2/h
- MTG amount permeated with vs without ascorbic acid in receptor medium (times higher) ([1]; Transcutol-AA and Maisine-AA vs Transcutol and Maisine, 48 h): 3–4 times
- Papp at 48 h, 5 %w/v [1, 3]: 0.0425 nm/s
- Papp at 48 h, 5 %w/v [1, 4]: 0.0291 nm/s
- Papp at 48 h, 5 %w/v [1, 5]: 0.00775 nm/s
- Papp at 48 h, 5 %w/v [1, 6]: 0.00631 nm/s
- Papp at 48 h, 5 %w/v [1, 7]: 0.0151 nm/s
- Papp at 48 h, 5 %w/v [1, 9]: 0.0183 nm/s
- Papp at 48 h, 5 %w/v [1, 10]: 0.0266 nm/s
- Papp at 48 h, 5 %w/v [1, 11]: 0.0257 nm/s
- Papp at 48 h, 5 %w/v [1, 12]: 0.0247 nm/s
- Degradation of MTG ([2]; oxidative and alkaline conditions): ~ 95%
- Degradation of MTG ([2]; thermal degradation): ~ 90%
